Experiment [1] addresses T1, AHR (Homo sapiens, UniProt P35869).
T1 construct: endogenous in cells; host or cells: HepG2 (human), transfected with a DRE-luciferase reporter only
T1 sequence (P35869 11-848): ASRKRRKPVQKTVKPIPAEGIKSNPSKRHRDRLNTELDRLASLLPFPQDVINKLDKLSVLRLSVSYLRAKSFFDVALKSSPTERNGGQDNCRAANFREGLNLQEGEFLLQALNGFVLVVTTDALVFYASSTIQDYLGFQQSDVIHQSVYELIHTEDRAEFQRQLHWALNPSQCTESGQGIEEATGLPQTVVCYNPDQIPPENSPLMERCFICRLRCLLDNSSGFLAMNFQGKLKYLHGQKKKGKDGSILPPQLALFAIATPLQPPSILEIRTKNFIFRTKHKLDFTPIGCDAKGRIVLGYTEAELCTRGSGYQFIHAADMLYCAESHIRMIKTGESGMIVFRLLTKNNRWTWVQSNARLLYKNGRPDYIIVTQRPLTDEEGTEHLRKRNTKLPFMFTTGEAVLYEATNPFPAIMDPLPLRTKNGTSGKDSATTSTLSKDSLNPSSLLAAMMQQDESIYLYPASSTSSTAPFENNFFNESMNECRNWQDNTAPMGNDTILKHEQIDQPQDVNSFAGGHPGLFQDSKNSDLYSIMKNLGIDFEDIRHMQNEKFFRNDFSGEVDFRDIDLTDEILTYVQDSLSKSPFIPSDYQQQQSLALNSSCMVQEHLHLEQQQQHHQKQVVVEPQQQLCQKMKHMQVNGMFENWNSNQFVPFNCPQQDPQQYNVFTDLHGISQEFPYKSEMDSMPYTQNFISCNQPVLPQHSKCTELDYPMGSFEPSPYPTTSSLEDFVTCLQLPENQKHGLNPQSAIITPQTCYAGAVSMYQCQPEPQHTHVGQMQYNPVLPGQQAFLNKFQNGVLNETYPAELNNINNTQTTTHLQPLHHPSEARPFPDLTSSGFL
Put plainly: DRE-Luciferase Reporter Assay, HepG2 (agonist). The experiment is classed as cell-based. The settings on record: HepG2, Table 2; read-out: DRE-Luc HepG2 - Agonist: Average EC50. A digest of the protocol:
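Cells carrying a stably or transiently transfected DRE-luciferase reporter, plated overnight at 37 C, then given agonist for 6, 16 or 24 h before lysis and luciferase read-out. Signal scaled between no ligand (minimum) and activating ligand alone, e.g. TCDD (maximum); EC50 = concentration giving half-maximal luciferase activity.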
In general terms: A reporter such as luciferase makes a cellular process visible.

For experiment [2], the target named is T2, AHR (Mus musculus, UniProt P30561).
T2 sequence (P30561 1-848 F348L/P471L): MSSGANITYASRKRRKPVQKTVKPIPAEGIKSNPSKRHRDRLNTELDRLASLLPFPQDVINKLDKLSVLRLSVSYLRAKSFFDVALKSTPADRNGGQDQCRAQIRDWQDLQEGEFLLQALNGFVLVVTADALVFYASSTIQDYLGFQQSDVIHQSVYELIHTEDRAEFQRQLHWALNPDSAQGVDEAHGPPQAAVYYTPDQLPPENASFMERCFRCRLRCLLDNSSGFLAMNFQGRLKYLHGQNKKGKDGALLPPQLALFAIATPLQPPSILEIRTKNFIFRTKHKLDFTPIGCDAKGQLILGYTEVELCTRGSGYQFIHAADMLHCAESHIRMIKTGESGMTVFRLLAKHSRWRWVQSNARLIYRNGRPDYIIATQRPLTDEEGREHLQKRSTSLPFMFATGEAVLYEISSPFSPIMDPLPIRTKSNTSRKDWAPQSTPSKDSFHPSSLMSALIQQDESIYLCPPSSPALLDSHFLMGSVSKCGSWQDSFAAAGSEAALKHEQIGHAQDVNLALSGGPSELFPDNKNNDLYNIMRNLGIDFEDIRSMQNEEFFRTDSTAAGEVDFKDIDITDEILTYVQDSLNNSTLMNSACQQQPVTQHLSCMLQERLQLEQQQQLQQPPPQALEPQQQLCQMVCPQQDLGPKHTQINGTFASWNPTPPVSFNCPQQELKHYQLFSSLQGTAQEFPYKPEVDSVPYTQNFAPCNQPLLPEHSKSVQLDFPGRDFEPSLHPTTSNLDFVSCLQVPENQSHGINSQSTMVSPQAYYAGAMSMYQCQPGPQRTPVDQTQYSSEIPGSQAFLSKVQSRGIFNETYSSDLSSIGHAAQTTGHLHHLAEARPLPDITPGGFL
Put plainly: P450 CYP1A1 Luciferase Assay, Hepa1.6 (agonist). The experiment is classed as cell-based, murine. As to conditions: Hepa1.6, Table 2. A digest of the protocol: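 Murine Hepa1-6 (or other murine/human lines) treated with agonist for 6, 16 or 24 h, then lysed and incubated with luminogenic CYP1A1 substrate (e.g. Luciferin-CEE). Luminescence normalised between no-ligand minimum and reference AHR ligand maximum; EC50 is concentration giving half-maximal activation.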

What is called EC50 is the concentration needed to bring the measured effect to its halfway point.

Where only a bound is given, the exact number is not on record here.

For `FC(F)(F)c1cccc(Nc2nc(-c3cccc(Cl)c3)cs2)c1` [Compound P-2], the values for the EC50 on AHR [1] and at AHR [2] were < 10 nM and 100 to 1000 nM, respectively.

For `Nc1cccc(-c2csc(Nc3cccc(C(F)(F)F)c3)n2)c1` [I-10], the results for the EC50 on AHR [1] and on AHR [2] were < 10 nM and 100 to 1000 nM, respectively.
